Measurements taken from patent US20250262201A1, “COMPOUNDS AND METHODS USEFUL FOR STABILIZING PHENYLALANINE HYDROXYLASE MUTATIONS” (Agios Pharmaceuticals, Inc., priority 2022, published 2025).

Target: T1, human PAH with the R408W mutation (Homo sapiens, UniProt P00439, R408W)
T1 construct: expressed in transfected cells
T1 sequence (P00439 1-452 R408W): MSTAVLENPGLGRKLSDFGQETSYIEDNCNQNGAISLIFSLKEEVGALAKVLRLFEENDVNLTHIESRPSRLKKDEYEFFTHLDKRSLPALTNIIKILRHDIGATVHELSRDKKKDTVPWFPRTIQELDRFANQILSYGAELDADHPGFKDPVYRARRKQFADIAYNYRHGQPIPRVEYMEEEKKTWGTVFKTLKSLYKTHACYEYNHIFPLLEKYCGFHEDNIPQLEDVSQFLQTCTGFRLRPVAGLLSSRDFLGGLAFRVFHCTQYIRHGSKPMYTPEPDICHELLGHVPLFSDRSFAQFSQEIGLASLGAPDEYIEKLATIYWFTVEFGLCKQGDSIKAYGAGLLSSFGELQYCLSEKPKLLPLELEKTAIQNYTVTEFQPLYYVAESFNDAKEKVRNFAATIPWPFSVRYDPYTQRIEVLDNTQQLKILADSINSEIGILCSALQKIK
Experiment: Cell Based Phenylalanine Flux Assay
Settings: A375 R408W cells, 24 hrs with compound, then 20 μM sepiapterin and 800 μM 13C9,15N-Phenylalanine for 4 hours; 13C-Tyrosine by LC-MS; average where tested multiple times; read-out: AC50

AC50 | Compound
1 to 5 µM | Cc1nc(C2(O)CC2)oc1C(=O)N1CCc2[nH]cnc2C1c1ccc2ccccc2n1 (stereo not shown) [listing 1 of 2 here]
1 to 5 µM | CC(C)(O)c1cc(C(=O)N2CCc3[nH]cnc3C2c2ccc3ccccc3n2)no1 (stereo not shown) [listing 1 of 2 here]
1 to 5 µM | Cn1ccc(C(=O)N2CCc3[nH]cnc3C2c2ccc3ccccc3n2)n1 (stereo not shown)
1 to 5 µM | O=C(c1cn[nH]c1)N1CCc2[nH]cnc2C1c1ccc2ccccc2n1 (stereo not shown)
1 to 5 µM | O=C(c1ccn[nH]1)N1CCc2[nH]cnc2C1c1ccc2ccccc2n1 (stereo not shown) [listing 1 of 2 here]
1 to 5 µM | Cc1nc(C2CCN2)oc1C(=O)N1CCc2[nH]cnc2C1c1ccc2ccccc2n1 (stereo not shown) [listing 1 of 2 here]
1 to 5 µM | Cc1nc(-c2ccccn2)oc1C(=O)N1CCc2[nH]cnc2C1c1cn2ccccc2n1 (stereo not shown) [listing 1 of 2 here]
1 to 5 µM | O=C(c1nnc(-c2ccccn2)o1)N1CCc2[nH]cnc2C1c1cn2ccccc2n1 (stereo not shown)
1 to 5 µM | CC(C)(O)c1cc(C(=O)N2CCc3[nH]cnc3C2c2ccc3ccccc3n2)on1 (stereo not shown) [listing 1 of 2 here]
> 5 µM | Cn1cc(-c2ncc(C(=O)N3CCc4[nH]cnc4C3c3ncc4ccccc4n3)o2)cn1 (stereo not shown) [listing 1 of 2 here]
> 5 µM | CC(C)(O)c1nnc(C(=O)N2CCc3[nH]cnc3C2c2ncc3ccccc3n2)o1 (stereo not shown) [listing 1 of 2 here]
> 5 µM | CN(C)c1nnc(C(=O)N2CCc3[nH]cnc3C2c2ncc3ccccc3n2)o1 (stereo not shown) [listing 1 of 2 here]
> 5 µM | O=C(c1nnc(-c2ncccn2)o1)N1CCc2[nH]cnc2C1c1ncc2ccccc2n1 (stereo not shown) [listing 1 of 2 here]
> 5 µM | Cc1nnc(C(=O)N2CCc3[nH]cnc3C2c2ncc3ccccc3n2)o1 (stereo not shown) [listing 1 of 2 here]
1 to 5 µM | O=C(c1cnn2cc(N3CCC(O)CC3)ccc12)N1CCc2[nH]cnc2C1c1ncc2ccccc2n1 (stereo not shown)
> 5 µM | Cc1nc(C2(O)CC2)oc1C(=O)N1CCc2[nH]cnc2C1c1ccc2ccccc2n1 (stereo not shown) [listing 2 of 2 here]
> 5 µM | CC(C)(O)c1cc(C(=O)N2CCc3[nH]cnc3C2c2ccc3ccccc3n2)no1 (stereo not shown) [listing 2 of 2 here]
> 5 µM | O=C(c1ccn[nH]1)N1CCc2[nH]cnc2C1c1ccc2ccccc2n1 (stereo not shown) [listing 2 of 2 here]
> 5 µM | Cc1nc(C2CCN2)oc1C(=O)N1CCc2[nH]cnc2C1c1ccc2ccccc2n1 (stereo not shown) [listing 2 of 2 here]
> 5 µM | Cc1nc(-c2ccccn2)oc1C(=O)N1CCc2[nH]cnc2C1c1cn2ccccc2n1 (stereo not shown) [listing 2 of 2 here]
> 5 µM | CC(C)(O)c1cc(C(=O)N2CCc3[nH]cnc3C2c2ccc3ccccc3n2)on1 (stereo not shown) [listing 2 of 2 here]
> 5 µM | Cc1nc(-c2cnn(C)c2)oc1C(=O)N1CCc2[nH]cnc2C1c1ncc2ccccc2n1 (stereo not shown)
1 to 5 µM | Cn1cncc1-c1nnc(C(=O)N2CCc3[nH]cnc3C2c2ncc3ccccc3n2)o1 (stereo not shown)
> 5 µM | O=C(c1cnn(CC(F)(F)F)c1Cl)N1CCc2[nH]cnc2C1c1ccc2ccccc2n1 (stereo not shown) [listing 2 of 2 here]

AC50 | Compound
1 to 5 µM | O=C(c1cnco1)N1CCc2[nH]cnc2C1c1cc2ccccc2nn1 (stereo not shown)
1 to 5 µM | O=C(c1cnc(-c2ccccn2)o1)N1CCc2[nH]cnc2C1c1cc2ccccc2nn1 (stereo not shown)
1 to 5 µM | Cn1nc(C(F)F)nc1C(=O)N1CCc2[nH]cnc2C1c1cc2ccccc2nn1 (stereo not shown)
> 5 µM | O=C(c1oc(-c2ccccn2)nc1C(F)F)N1CCc2[nH]cnc2C1c1cc2ccccc2nn1 (stereo not shown)
1 to 5 µM | Cn1ccc(-c2nnc(C(=O)N3CCc4[nH]cnc4C3c3cc4ccccc4nn3)o2)n1 (stereo not shown)
1 to 5 µM | Cn1cc(-c2nnc(C(=O)N3CCc4[nH]cnc4C3c3cc4ccccc4nn3)o2)cn1 (stereo not shown)
1 to 5 µM | O=C(c1nnc(-c2ccccn2)o1)N1CCc2[nH]cnc2C1c1cc2ccccc2nn1 (stereo not shown)
> 5 µM | Cc1nnc(C(=O)N2CCc3[nH]cnc3C2c2cc3ccccc3nn2)o1 (stereo not shown)
1 to 5 µM | Cn1cc(-c2ncc(C(=O)N3CCc4[nH]cnc4C3c3ncc4ccccc4n3)o2)cn1 (stereo not shown) [listing 2 of 2 here]
> 5 µM | CC(C)(O)c1ncc(C(=O)N2CCc3[nH]cnc3C2c2ncc3ccccc3n2)o1 (stereo not shown)
1 to 5 µM | Cc1ncoc1C(=O)N1CCc2[nH]cnc2C1c1ncc2ccccc2n1 (stereo not shown)
1 to 5 µM | O=C(c1nnc(-c2cn[nH]c2)o1)N1CCc2[nH]cnc2C1c1ncc2ccccc2n1 (stereo not shown)
1 to 5 µM | CC(C)(O)c1nnc(C(=O)N2CCc3[nH]cnc3C2c2ncc3ccccc3n2)o1 (stereo not shown) [listing 2 of 2 here]
1 to 5 µM | O=C(c1nnc(N2CC(F)C2)o1)N1CCc2[nH]cnc2C1c1ncc2ccccc2n1 (stereo not shown)
1 to 5 µM | CN1CCN(c2nnc(C(=O)N3CCc4[nH]cnc4C3c3ncc4ccccc4n3)o2)CC1 (stereo not shown)
1 to 5 µM | CN(C)c1nnc(C(=O)N2CCc3[nH]cnc3C2c2ncc3ccccc3n2)o1 (stereo not shown) [listing 2 of 2 here]
1 to 5 µM | O=C(c1nnc(-c2ncccn2)o1)N1CCc2[nH]cnc2C1c1ncc2ccccc2n1 (stereo not shown) [listing 2 of 2 here]
1 to 5 µM | Cc1nnc(C(=O)N2CCc3[nH]cnc3C2c2ncc3ccccc3n2)o1 (stereo not shown) [listing 2 of 2 here]
1 to 5 µM | O=C(c1nnc(N2CCOCC2)o1)N1CCc2[nH]cnc2C1c1ncc2ccccc2n1 (stereo not shown)
> 5 µM | CN(C)Cc1ccc2c(C(=O)N3CCc4[nH]cnc4C3c3cc4ccccc4nn3)cnn2c1 (stereo not shown)
1 to 5 µM | CC1CN(C(=O)c2nnc(-c3cnn(C)c3)o2)C(c2cc3ccccc3cn2)c2nc[nH]c21 (stereo not shown) [listing 1 of 3 here]
1 to 5 µM | CC1CN(C(=O)c2nnc(-c3cnn(C)c3)o2)C(c2cc3ccccc3cn2)c2nc[nH]c21 (stereo not shown) [listing 2 of 3 here]
> 5 µM | CC1CN(C(=O)c2nnc(-c3cnn(C)c3)o2)C(c2cc3ccccc3cn2)c2nc[nH]c21 (stereo not shown) [listing 3 of 3 here]

The remaining lines, values behind:

Compound | AC50
O=C(c1nc2ccccc2s1)N1CCc2[nH]cnc2C1c1ccc2ccccc2c1 (stereo not shown) | > 5 µM
O=C(c1nnc(CCO)o1)N1CCc2[nH]cnc2C1c1ccc2ccccc2n1 (stereo not shown) | > 5 µM
O=C(CCc1ccc(F)cc1)N1CCc2[nH]cnc2C1c1ccc2ccccc2c1 (stereo not shown) | > 5 µM
Cc1nnc(CCC(=O)N2CCc3[nH]cnc3C2c2cn3ccccc3n2)o1 (stereo not shown) | > 5 µM
O=C(CCc1nccs1)N1CCc2[nH]cnc2C1c1cn2ccccc2n1 (stereo not shown) | 1 to 5 µM
O=C(Cc1cscn1)N1CCc2[nH]cnc2C1c1cn2ccccc2n1 (stereo not shown) | 1 to 5 µM
O=C(Cc1cnco1)N1CCc2[nH]cnc2C1c1cn2ccccc2n1 (stereo not shown) | > 5 µM
O=C(Cc1cncs1)N1CCc2[nH]cnc2C1c1cn2ccccc2n1 (stereo not shown) | > 5 µM
O=C(CCc1ncco1)N1CCc2[nH]cnc2C1c1cn2ccccc2n1 (stereo not shown) | 1 to 5 µM
O=C(CCc1ccccc1)N1CCc2[nH]cnc2C1c1cn2ccccc2n1 (stereo not shown) [listing 1 of 2 here] | 1 to 5 µM
O=C(Cc1ccccn1)N1CCc2[nH]cnc2C1c1cn2ccccc2n1 (stereo not shown) | > 5 µM
Cc1nnc(CC(=O)N2CCc3[nH]cnc3C2c2cn3ccccc3n2)s1 (stereo not shown) | > 5 µM
Cc1ncc(CC(=O)N2CCc3[nH]cnc3C2c2cn3ccccc3n2)o1 (stereo not shown) | > 5 µM
Cc1nnc(CCC(=O)N2CCc3[nH]cnc3C2c2cn3ccccc3n2)s1 (stereo not shown) | > 5 µM
O=C(Cc1nncs1)N1CCc2[nH]cnc2C1c1cn2ccccc2n1 (stereo not shown) | > 5 µM
O=C(Cc1cnn2ccccc12)N1CCc2[nH]cnc2C1c1cn2ccccc2n1 (stereo not shown) | > 5 µM
Cc1ncoc1CC(=O)N1CCc2[nH]cnc2C1c1cn2ccccc2n1 (stereo not shown) | > 5 µM
O=C(Cc1nc(C(F)(F)F)cs1)N1CCc2[nH]cnc2C1c1cn2ccccc2n1 (stereo not shown) [listing 1 of 2 here] | 1 to 5 µM
Cn1nc(C(C)(C)O)cc1C(=O)N1CCc2[nH]cnc2C1c1ccc2ccccc2n1 (stereo not shown) | > 5 µM
O=C(Cc1coc(C(F)F)n1)N1CCc2nc[nH]c2C1c1cn2ccccc2n1 (stereo not shown) | 1 to 5 µM
Cc1nnc(C(=O)N2CCc3[nH]cnc3C2c2cn3ccccc3n2)o1 (stereo not shown) | 1 to 5 µM
Cn1nc(C(F)(F)F)nc1C(=O)N1CCc2[nH]cnc2C1c1ccc2ccccc2n1 (stereo not shown) | 1 to 5 µM
Cc1nc(C(C)(C)S(C)(=O)=O)oc1C(=O)N1CCc2[nH]cnc2C1c1ccc2ccccc2n1 (stereo not shown) | 1 to 5 µM
CC(C)(O)c1nc(C(F)(F)F)c(C(=O)N2CCc3[nH]cnc3C2c2cn3ccccc3n2)o1 (stereo not shown) | 1 to 5 µM

Compound | AC50
Cc1nc(C(C)(C)O)oc1C(=O)N1CCc2[nH]cnc2C1c1cn2ccccc2n1 (stereo not shown) | 1 to 5 µM
CC(C)(O)c1cc(C(=O)N2CCc3[nH]cnc3C2c2ccc3ccccc3n2)[nH]n1 (stereo not shown) | > 5 µM
O=C(c1cnn(CC(F)(F)F)c1Cl)N1CCc2[nH]cnc2C1c1ccc2ccccc2n1 (stereo not shown) [listing 1 of 2 here] | 1 to 5 µM
O=C(c1ocnc1C(F)F)N1CCc2nc[nH]c2C1c1cn2ccccc2n1 (stereo not shown) | 1 to 5 µM
O=C(c1cnco1)N1CCc2[nH]cnc2C1c1cn2ccccc2n1 (stereo not shown) | 1 to 5 µM
O=C(c1cncs1)N1CCc2[nH]cnc2C1c1cn2ccccc2n1 (stereo not shown) [listing 1 of 2 here] | 1 to 5 µM
O=C(C1CC1)N1CCc2nc[nH]c2C1c1cn2ccccc2n1 (stereo not shown) | 1 to 5 µM
CN(C)Cc1ccc2c(C(=O)N3CCc4[nH]cnc4C3c3cn4ccccc4n3)cnn2c1 (stereo not shown) | > 5 µM
O=C(CCc1nccs1)N1CCc2[nH]cnc2C1c1cc2ccccc2nn1 (stereo not shown) | 1 to 5 µM
O=C(Cc1nc(C(F)(F)F)cs1)N1CCc2[nH]cnc2C1c1cn2ccccc2n1 (stereo not shown) [listing 2 of 2 here] | > 5 µM
O=C(CCc1ccccc1)N1CCc2[nH]cnc2C1c1cn2ccccc2n1 (stereo not shown) [listing 2 of 2 here] | > 5 µM
Cn1nc(COC(F)(F)F)cc1C(=O)N1CCc2[nH]cnc2C1c1ccc2ccccc2n1 (stereo not shown) | > 5 µM
CC(C)(O)c1nnc(C(=O)N2CCc3[nH]cnc3C2c2cc3ccccc3nn2)o1 (stereo not shown) | 1 to 5 µM
O=C(c1ocnc1C(F)F)N1CCc2[nH]cnc2C1c1cc2ccccc2nn1 (stereo not shown) | 1 to 5 µM
O=C(c1nnc(C2CC2)o1)N1CCc2[nH]cnc2C1c1cc2ccccc2nn1 (stereo not shown) | 1 to 5 µM
CC(C)(C)c1nnc(C(=O)N2CCc3[nH]cnc3C2c2cc3ccccc3nn2)o1 (stereo not shown) | 1 to 5 µM
O=C(c1cncs1)N1CCc2[nH]cnc2C1c1cn2ccccc2n1 (stereo not shown) [listing 2 of 2 here] | > 5 µM
CC1CN(C(=O)c2nnc(N3CC(F)C3)o2)C(c2cc3ccccc3cn2)c2nc[nH]c21 (stereo not shown) | > 5 µM
Cc1ncoc1C(=O)N1CC(C)c2[nH]cnc2C1c1cc2ccccc2cn1 (stereo not shown) | > 5 µM
COCc1ccc2c(C(=O)N3CC(C)c4[nH]cnc4C3c3cc4ccccc4cn3)cnn2c1 (stereo not shown) | 1 to 5 µM
CC1CN(C(=O)c2ocnc2C(F)(F)F)C(c2cc3ccccc3cn2)c2nc[nH]c21 (stereo not shown) | 1 to 5 µM
COCCNc1nnc(C(=O)N2CC(C)c3[nH]cnc3C2c2cc3ccccc3cn2)o1 (stereo not shown) | 1 to 5 µM
CC1CN(C(=O)c2nnc(NC3CC3)o2)C(c2cc3ccccc3cn2)c2nc[nH]c21 (stereo not shown) | 1 to 5 µM
